We go through 12 compounds from US20240254174A1 (priority 2023, published 2024).

Several values for one entry are separate records, joined by “and”; a condition that tells them apart may be missing. Equal values may be shown once. Entries after “also recorded” stand apart in the source; their conditions may differ.

The subject of data set [1] is BDNF. The note with it: mouse, in vivo.
Target sequence in this assay (P21237 131-249): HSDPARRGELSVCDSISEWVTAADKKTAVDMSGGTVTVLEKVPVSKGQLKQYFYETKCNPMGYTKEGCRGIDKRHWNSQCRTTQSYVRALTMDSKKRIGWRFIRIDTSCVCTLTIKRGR
The subject of data set [2] is BDNF. It is filed as cell-based.
The test system of the next data set is Pdcd4. As to conditions: mouse, in vivo.
A further data set concerns Pdcd4 protein. It is filed as cell-based.
Another data set has as its system nAChR subtypes. Type of data set: cell-based, Human.
Data set [3] addresses T1, α7 nAChR (Homo sapiens, UniProt P36544). Kind of data set: cell-based. It is filed as cell-based.
The target in data set [4] is T1, α7 nAChR. Kind of data set: cell-based. The note with it: read-out: inhibition of ACh-mediated currents on α7 nAChR.
The next data set concerns the target α9α10 nAChR (Homo sapiens, UniProt Q9GZZ6+Q9UGM1). Nature of the data set: cell-based.
The test system of data set [5] is α7-nAChR transfected N2a cells. Type of data set: cell-based.
The test system of data set [6] is non-transfected N2a cells.
Data set [7] concerns the target α9α10 nAChR, expressed in Xenopus laevis oocytes (Human) (UniProt Q9UGM1). Kind of data set: cell-based or functional assay.
Data set [8] deals with α7 nAChR (nicotinic acetylcholine receptor), expressed in Xenopus laevis oocytes (Human) (UniProt P36544). Kind of data set: cell-based or functional assay.
For data set [9] the following is noted: in vivo.
Data set [10] has as its system α7-nAChR transfected cells. It is filed as cell-based.
Data set [11] has as its system non-transfected HEK cells. It is filed as cell-based, human.

T1 sequence (P36544 23-502 limits assumed): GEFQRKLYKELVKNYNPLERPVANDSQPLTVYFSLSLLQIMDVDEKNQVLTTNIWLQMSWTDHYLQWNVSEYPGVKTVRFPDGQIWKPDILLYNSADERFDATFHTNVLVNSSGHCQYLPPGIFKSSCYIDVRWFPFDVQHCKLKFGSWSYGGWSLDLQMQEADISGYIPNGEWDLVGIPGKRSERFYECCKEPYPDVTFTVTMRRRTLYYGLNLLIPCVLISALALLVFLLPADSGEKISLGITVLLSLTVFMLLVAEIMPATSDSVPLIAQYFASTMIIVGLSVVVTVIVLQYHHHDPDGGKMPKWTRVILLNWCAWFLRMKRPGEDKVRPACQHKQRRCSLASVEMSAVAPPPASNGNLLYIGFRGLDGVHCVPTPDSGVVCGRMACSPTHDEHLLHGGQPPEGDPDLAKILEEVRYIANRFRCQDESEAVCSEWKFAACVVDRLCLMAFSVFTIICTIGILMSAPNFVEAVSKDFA
Sequence of α7 nAChR (nicotinic acetylcholine receptor), expressed in Xenopus laevis oocytes (Human) (P36544 23-502): as the sequence (P36544 23-502 limits assumed) above
Sequence of α9α10 nAChR (Q9UGM1 26-479 limits assumed): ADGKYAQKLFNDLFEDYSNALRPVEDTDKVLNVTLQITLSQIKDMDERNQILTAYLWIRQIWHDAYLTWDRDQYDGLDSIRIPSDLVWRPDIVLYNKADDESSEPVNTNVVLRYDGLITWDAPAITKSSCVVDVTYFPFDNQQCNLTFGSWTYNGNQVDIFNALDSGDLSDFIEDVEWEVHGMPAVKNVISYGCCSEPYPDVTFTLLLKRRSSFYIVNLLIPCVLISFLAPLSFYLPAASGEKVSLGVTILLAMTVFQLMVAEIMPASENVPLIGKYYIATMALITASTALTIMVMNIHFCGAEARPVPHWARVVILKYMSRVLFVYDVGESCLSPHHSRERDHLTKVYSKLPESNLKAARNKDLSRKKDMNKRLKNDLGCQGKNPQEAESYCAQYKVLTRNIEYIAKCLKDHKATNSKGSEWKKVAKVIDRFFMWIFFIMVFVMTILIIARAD
Sequence of α9α10 nAChR (Q9GZZ6 25-450 limits assumed): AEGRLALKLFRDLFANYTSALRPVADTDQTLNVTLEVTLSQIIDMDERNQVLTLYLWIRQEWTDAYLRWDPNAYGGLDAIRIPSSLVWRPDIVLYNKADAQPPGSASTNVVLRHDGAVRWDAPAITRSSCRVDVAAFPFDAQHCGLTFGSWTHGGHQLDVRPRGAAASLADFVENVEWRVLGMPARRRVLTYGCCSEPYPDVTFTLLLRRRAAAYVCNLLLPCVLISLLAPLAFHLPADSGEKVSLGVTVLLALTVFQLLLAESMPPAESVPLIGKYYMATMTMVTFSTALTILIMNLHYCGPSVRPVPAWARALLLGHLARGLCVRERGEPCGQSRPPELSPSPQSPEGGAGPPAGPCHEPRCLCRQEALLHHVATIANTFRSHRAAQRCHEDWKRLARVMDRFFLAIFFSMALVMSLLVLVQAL
Sequence of α9α10 nAChR, expressed in Xenopus laevis oocytes (Human) (Q9UGM1 23-479, chain 1 of 2): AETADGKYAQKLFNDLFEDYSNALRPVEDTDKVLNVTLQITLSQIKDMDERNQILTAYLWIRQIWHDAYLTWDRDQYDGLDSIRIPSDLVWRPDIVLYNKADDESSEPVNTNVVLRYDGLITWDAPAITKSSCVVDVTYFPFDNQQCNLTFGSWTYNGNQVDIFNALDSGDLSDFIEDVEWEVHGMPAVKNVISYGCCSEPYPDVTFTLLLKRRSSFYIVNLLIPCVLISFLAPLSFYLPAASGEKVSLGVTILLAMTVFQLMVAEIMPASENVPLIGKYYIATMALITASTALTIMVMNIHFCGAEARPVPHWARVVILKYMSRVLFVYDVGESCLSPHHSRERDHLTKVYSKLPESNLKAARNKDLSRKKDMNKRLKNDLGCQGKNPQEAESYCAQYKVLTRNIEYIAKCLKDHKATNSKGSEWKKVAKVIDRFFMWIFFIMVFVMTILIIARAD
Sequence of α9α10 nAChR, expressed in Xenopus laevis oocytes (Human) (Q9GZZ6 25-450, chain 2 of 2, further chain): as the sequence (Q9GZZ6 25-450 limits assumed) above
Sequence of Pdcd4 (Q61823 whole entry): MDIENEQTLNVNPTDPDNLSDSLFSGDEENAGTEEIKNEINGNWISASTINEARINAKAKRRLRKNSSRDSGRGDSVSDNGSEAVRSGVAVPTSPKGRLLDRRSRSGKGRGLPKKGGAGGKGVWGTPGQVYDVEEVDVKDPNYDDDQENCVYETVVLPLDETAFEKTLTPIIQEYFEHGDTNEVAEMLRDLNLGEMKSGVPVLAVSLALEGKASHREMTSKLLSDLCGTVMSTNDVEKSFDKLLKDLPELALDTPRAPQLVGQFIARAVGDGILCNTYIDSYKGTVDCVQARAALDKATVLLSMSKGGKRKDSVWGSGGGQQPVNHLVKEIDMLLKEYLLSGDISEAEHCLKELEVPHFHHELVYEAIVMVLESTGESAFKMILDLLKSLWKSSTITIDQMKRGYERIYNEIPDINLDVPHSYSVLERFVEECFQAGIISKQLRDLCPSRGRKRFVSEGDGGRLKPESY

Regarding “5′-GAGGCUAUGAGAGAAUUUATT-FL-3′ [siPdcd4]”, the “BDNF production in tissue” value in the data set on BDNF [1] was “enhance”. In addition, the BDNF production result with BDNF [2] is on record as “enhance”. Besides, in the data set with Pdcd4, the “Pdcd4 expression in tissue” value is given as “decreases”. The “expression of Pdcd4 protein” value with Pdcd4 protein is “knock down”.

`CC[C@H](C)[C@H](NC(=O)[C@H](CC(=O)O)NC(=O)[C@H](CS)NC(=O)[C@H](CO)NC(=O)[C@@H](NC(=O)CNC(=O)[C@H](CC(C)C)NC(=O)[C@H](CCCNC(=N)N)NC(=O)[C@@H]1CCCN1C(=O)[C@H](CC(N)=O)NC(=O)[C@H](CCC(=O)O)NC(=O)[C@@H]1CCCN1C(=O)[C@H](CCSC)NC(=O)[C@H](Cc1c[nH]c2ccccc12)NC(=O)[C@@H](NC(=O)[C@@H](NC(=O)[C@@H](N)Cc1ccc(O)cc1)[C@@H](C)O)[C@@H](C)CC)[C@@H](C)O)C(=O)N[C@@H](Cc1ccccc1)C(=O)N[C@H](C(=O)N[C@@H](CC(N)=O)C(=O)N[C@@H](CO)C(=O)N[C@@H](CCCNC(=N)N)C(=O)NCC(=O)N[C@@H](CCCCN)C(=O)N[C@@H](CCCNC(=N)N)C(=O)N[C@@H](C)C(=O)N[C@@H](CO)C(=O)N[C@@H](CCCCN)C(=O)NCC(=O)O)[C@@H](C)O` [RVG peptide, reference compound]: in the data set on nAChR subtypes, the “inhibition of ACh-mediated currents on several other nAChR subtypes” value was more than 25% and the “nAChR subtype selectivity (in words)” value is “not target specific; also recorded: slight preference for the α7-nAChR; also recorded: not very selective”. On α7 nAChR [3] (α7 nAChR potency (IC50, concentration response profile)), the IC50 (in general, the concentration needed to halve the response being measured) was 32 µM and 31 µM. Also, the inhibition (as a rule, the share of the control response that was lost under treatment) at 100 µM on α7 nAChR [4] is more than 80%. The compound further yielded an IC50 against α9α10 nAChR of 153 ± 14 µM. For the same compound, in the data set on HEK cell lines, the neuro-/cytotoxicity result is reported as “not neuro- or cyto-toxic”.

On to `CSCC[C@H](NC(=O)[C@H](CCCCN)NC(=O)[C@H](CCCNC(=N)N)NC(=O)[C@@H](N)Cc1ccc(O)cc1)C(=O)N[C@@H](Cc1c[nH]c2ccccc12)C(=O)N[C@@H](CCSC)C(=O)N1CCC[C@H]1C(=O)N[C@@H](CCC(=O)O)C(=O)N[C@@H](CC(N)=O)C(=O)N1CCC[C@H]1C(=O)N[C@@H](CCCNC(=N)N)C(=O)N[C@@H](CC(C)C)C(=O)NCC(=O)N[C@H](C(=O)N[C@@H](CO)C(=O)N[C@@H](CS)C(=O)N[C@@H](CC(=O)O)C(=O)N[C@@H](C)C(=O)N[C@@H](Cc1ccccc1)C(=O)N[C@@H](CS)C(=O)N[C@@H](CO)C(=O)N[C@@H](CO)C(=O)N[C@@H](CCCNC(=N)N)C(=O)NCC(=O)N[C@@H](CCCCN)C(=O)N[C@H](C(=O)N[C@H](C(=O)N[C@@H](CCC(=O)O)C(=O)N[C@@H](CC(C)C)C(=O)NCC(=O)O)C(C)C)C(C)C)[C@@H](C)O` [lead peptide], for which, in data set [5], the “time to entry into neuronal-like cells post-exposure” value was not above 3 h and the “time visually present in neuronal-like cells” value was “up to 72 hrs”. Besides, in the data set with nAChR subtypes, the “inhibition of ACh-mediated currents on no more than two subtypes (positive hit criterion)” value is more than 80%, the “inhibition of ACh-mediated currents on the other tested nAChR subtypes” value is given as less than 25% and the “nAChR subtype selectivity (in words)” value is “minimally targeting nine other nAChR subtypes; also recorded: high selectivity”. The “α7 nAChR potency (IC50, concentration response profile)” value on α7 nAChR [3] is recorded as “low μM”. In the data set with HEK cell lines, the neuro-/cytotoxicity result is reported as “not neuro- or cyto-toxic”.

CDAFCSSRGKVVELG [α-btx Region 3]: at α7 nAChR [3], the “effect of peptide regions on α7 nAChR mediated currents (in words)” value (“effect of peptide regions” below) was “inhibit”.

For CDIFTNSRGKRASKG [RVG Region 3], the “effect of peptide regions” value at α7 nAChR [3] is reported as “slightly antagonizes”.

Turning to DMSO, the “cell viability, positive control” value in data set [6] is recorded as “kills cells”.

Take MPENPRLGTS [RVG Region 2]: the “effect of peptide regions” value at α7 nAChR [3] is reported as “minimal effects”.

Regarding “RVG peptide (rabies viral glycoprotein peptide)”, the potency (concentration response profile, inhibition of ACh-mediated currents) in data set [7] was 153 µM. In data set [8], this compound displayed a potency (concentration response profile, inhibition of ACh-mediated currents) of 31 µM and a potency (concentration response, inhibition of ACh-mediated currents) of 32 µM.

Consider YRKMW [α-btx Region 1], for which the “effect of peptide regions” value on α7 nAChR [3] is “inhibit”.

As for “YRKMWMPENPRLGTSCDAFCSSRGKVVELGRRRRRRRRR [lead CPP-9dR]”, in data set [9], the “siPdcd4-FL delivery into mouse CNS” value is “can facilitate siPdcd4-FL delivery into mouse CNS”. In data set [9] (mouse), the brain regional distribution result is “accumulate in the hippocampus and prefrontal cortex”. Besides, in data set [10], the “delivery of siPdcd4-FL into α7-nAChR transfected cells” value is given as “can facilitate delivery”. In addition, the “delivery of siPdcd4-FL into non-transfected HEK cells” value in data set [11] was “not into non-transfected HEK cells”.

Consider YTIW [RVG Region 1], for which the “effect of peptide regions” value on α7 nAChR [3] is listed as “minimal effects”.

Take α-bungarotoxin [reference compound]: the “cell entry / labeling (in words)” value in [5] was “unable to enter”.
